Test system: primary human tumor cells
Experiment: Drug sensitivity assay of primary tumor cell cultures on cell-adhesive matrix, growth quantitated by optical density of crystal violet stained wells, IC90 from survival curves
Type: cell-based
Conditions: median of IC90 values over a large group of individuals' tumor cells (Figure 5); 5 days drug exposure, then 7 days further culture; 2,000 cells per well
Procedure: Biopsies of tumors were obtained from cancer patients during routine diagnostic or therapeutic procedures. The biopsies were transported to the laboratory.
The solid tumor biopsies were minced with scapels to 1 mm pieces. Fluid specimens were anticoagulated with 10 Units/ml of Heparin and the cells recovered by contrifugation. The tissue from either the solid or fluid specimens were disaggregated by overnight incubation with constant stirring with the enzyme cocktail consisting of collagenase (0.075%) and DNase (0.005%) in culture medium supplemented with 10% fetal bovine serum. […]
The tumor cell count is performed using a hemocytometer and a microscope fitted with a phase gradient inaging system so that living cells can be visualized. The number of viable tumor cells are counted at 400X magnification according to the following criteria: 1. unstained by the trypan blue dye; 2. large size (>15 microns); 3. large nucleous to cytoplasmic ratio; 4. prominant nucleoli; and 5. nil to moderate granularity. The number of cells in 1/9th the marked area of the hemocytometer meeting the above criteria are counted.
The cell concentration is calculated and an aliquot containing the number of cells required for the assay (200,000 cells for a 9 drug assay using alphaMEM culture medium) is withdrawn. […]

In the case of `N.N.[Cl][Pt][Cl]` [cisplatin], the “IC90 (concentration of drug that killed or inhibited 90% of the growing population of cells), median of the distribution of responses” value is reported as 0.3 µg/mL.

From patent publication EP0259183A2, “Process for controlling the accuracy and precision of sensitivity assays” (LIFETRAC, priority 1986, dated 1988)
